{"source": "paper PMC9292215", "about": "(Clinical Pharmacology and Therapeutics, 2021)", "test": "Plasma pharmacokinetics of BIA 10-2474 and metabolites", "format": "in vivo, human", "settings": "for Cmax / Tmax / AUC(0-inf) / AUC(0-t) / clearance / half-life / concentration at 10 day / AUC: human, plasma, oral; for AUC(0-t): AUC0–t; for clearance: CL; for AUC: AUC0–τ", "key": {"[1]": {"settings": "both, 0.25 mg, single dose 0.25 mg"}, "[2]": {"settings": "both, 1.25 mg, single dose 1.25 mg"}, "[3]": {"settings": "both, 2.5 mg, single dose 2.5 mg"}, "[4]": {"settings": "both, 100 mg, single dose 100 mg"}, "[5]": {"settings": "2.5 mg, 2.5 mg once daily, Day 1"}, "[6]": {"settings": "2.5 mg, 2.5 mg once daily, Day 10"}}, "data": [{"compound": "CN(C(=O)n1cnc(-c2ccc[n+]([O-])c2)c1)C1CCCCC1", "note": "[BIA 10-2474, 3-(1-(cyclohexyl(methyl)carbamoyl)-1H-imidazol-4-yl)pyridine 1-oxide]", "values": [{"measurement": "V/F", "setting": "2.5 mg once daily, Day 1", "value": "56.1 (18.7) L"}, {"measurement": "Racc", "setting": "2.5 mg once daily, Day 10", "value": 1.15}, {"measurement": "V/F", "setting": "2.5 mg once daily, Day 10", "value": "57.0 (26.0) L"}, {"measurement": "V/F", "setting": "5 mg once daily, Day 1", "value": "63.2 (20.4) L"}, {"measurement": "Racc", "setting": "5 mg once daily, Day 10", "value": 1.31}, {"measurement": "V/F", "setting": "5 mg once daily, Day 10", "value": "65.3 (17.4) L"}, {"measurement": "V/F", "setting": "10 mg once daily, Day 1", "value": "69.0 (22.8) L"}, {"measurement": "Racc", "setting": "10 mg once daily, Day 10", "value": 1.59}, {"measurement": "V/F", "setting": "10 mg once daily, Day 10", "value": "61.4 (17.9) L"}, {"measurement": "V/F", "setting": "20 mg once daily, Day 1", "value": "66.3 (7.34) L"}, {"measurement": "Racc", "setting": "20 mg once daily, Day 10", "value": 1.57}, {"measurement": "V/F", "setting": "20 mg once daily, Day 10", "value": "64.1 (15.4) L"}, {"measurement": "V/F", "setting": "50 mg once daily, Day 1", "value": "67.9 (9.78) L"}, {"measurement": "accumulation ratio, based on AUC0–24h", "setting": "Day 10", "value": "< 2"}, {"measurement": "Overall fold increase in AUC0–τ", "setting": "MAD Day 1", "value": 19.6}, {"measurement": "Overall fold increase in Cmax", "setting": "MAD Day 1", "value": 14.5}, {"measurement": "Fold increase in AUC0–τ", "setting": "MAD Day 1, 2.5 to 5 mg", "value": 1.8}, {"measurement": "Fold increase in Cmax", "setting": "MAD Day 1, 2.5 to 5 mg", "value": 1.7}, {"measurement": "Fold increase in AUC0–τ", "setting": "MAD Day 1, 5 to 10 mg", "value": 2.0}, {"measurement": "Fold increase in Cmax", "setting": "MAD Day 1, 5 to 10 mg", "value": 1.9}, {"measurement": "Fold increase in AUC0–τ", "setting": "MAD Day 1, 10 to 20 mg", "value": 2.1}, {"measurement": "Fold increase in Cmax", "setting": "MAD Day 1, 10 to 20 mg", "value": 2.0}, {"measurement": "Fold increase in AUC0–τ", "setting": "MAD Day 1, 20 to 50 mg", "value": 2.6}, {"measurement": "Fold increase in Cmax", "setting": "MAD Day 1, 20 to 50 mg", "value": 2.3}, {"measurement": "Overall fold increase in AUC0–τ", "setting": "MAD Day 10", "value": 8.84}, {"measurement": "Overall fold increase in Cmax", "setting": "MAD Day 10", "value": 7.53}, {"measurement": "Fold increase in AUC0–τ", "setting": "MAD Day 10, 2.5 to 5 mg", "value": 1.7}, {"measurement": "Fold increase in Cmax", "setting": "MAD Day 10, 2.5 to 5 mg", "value": 1.6}, {"measurement": "Fold increase in AUC0–τ", "setting": "MAD Day 10, 5 to 10 mg", "value": 2.4}, {"measurement": "Fold increase in Cmax", "setting": "MAD Day 10, 5 to 10 mg", "value": 2.2}, {"measurement": "Fold increase in AUC0–τ", "setting": "MAD Day 10, 10 to 20 mg", "value": 2.1}, {"measurement": "Fold increase in Cmax", "setting": "MAD Day 10, 10 to 20 mg", "value": 2.1}, {"measurement": "Fold increase in Cmax", "setting": "SAD, 1.25 to 2.5 mg", "value": 1.9}, {"measurement": "Fold increase in AUC0–t", "setting": "SAD, 2.5 to 5 mg", "value": 2.4}, {"measurement": "Fold increase in Cmax", "setting": "SAD, 2.5 to 5 mg", "value": 2.7}, {"measurement": "Fold increase in AUC0–t", "setting": "SAD, 5 to 10 mg", "value": 2.1}, {"measurement": "Fold increase in Cmax", "setting": "SAD, 5 to 10 mg", "value": 1.7}, {"measurement": "Fold increase in AUC0–t", "setting": "SAD, 10 to 20 mg", "value": 2.8}, {"measurement": "Fold increase in Cmax", "setting": "SAD, 10 to 20 mg", "value": 2.1}, {"measurement": "Fold increase in AUC0–t", "setting": "SAD, 20 to 40 mg", "value": 2.2}, {"measurement": "Fold increase in Cmax", "setting": "SAD, 20 to 40 mg", "value": 2.6}, {"measurement": "Fold increase in AUC0–t", "setting": "SAD, 40 to 100 mg", "value": 2.6}, {"measurement": "Fold increase in Cmax", "setting": "SAD, 40 to 100 mg", "value": 2.2}, {"measurement": "Overall fold increase in AUC0–t", "setting": "SAD, over the dosage range", "value": 19.6}, {"measurement": "Cmax", "setting": "[1]", "value": 3.1, "unit": "ng/mL"}, {"measurement": "Tmax", "setting": "[1]", "value": 2, "unit": "h"}, {"measurement": "AUC(0-inf)", "setting": "both, 1.25 mg", "value": 142, "unit": "ng·h/mL"}, {"measurement": "AUC(0-t)", "setting": "[2]", "value": 98, "unit": "ng·h/mL"}, {"measurement": "clearance", "setting": "[2]", "value": 155, "unit": "mL/min"}, {"measurement": "Cmax", "setting": "[2]", "value": 16.2, "unit": "ng/mL"}, {"measurement": "half-life", "setting": "both, 1.25 mg, t1/2, single dose 1.25 mg", "value": 6.54, "unit": "h"}, {"measurement": "Tmax", "setting": "[2]", "value": 1.5, "unit": "h"}, {"measurement": "AUC(0-inf)", "setting": "both, 2.5 mg", "value": 338, "unit": "ng·h/mL"}, {"measurement": "AUC(0-t)", "setting": "[3]", "value": 289, "unit": "ng·h/mL"}, {"measurement": "clearance", "setting": "[3]", "value": 131, "unit": "mL/min"}, {"measurement": "Cmax", "setting": "[3]", "value": 31.2, "unit": "ng/mL"}, {"measurement": "half-life", "setting": "both, 2.5 mg, t1/2, single dose 2.5 mg", "value": 7.04, "unit": "h"}, {"measurement": "Tmax", "setting": "[3]", "value": 1.5, "unit": "h"}, {"measurement": "AUC(0-t)", "setting": "both, 5 mg, single dose 5 mg", "value": 693, "unit": "ng·h/mL"}, {"measurement": "Cmax", "setting": "both, 5 mg, single dose 5 mg", "value": 85.4, "unit": "ng/mL"}, {"measurement": "Tmax", "setting": "both, 5 mg, single dose 5 mg", "value": 2, "unit": "h"}, {"measurement": "clearance", "setting": "both, 40 mg, single dose 40 mg", "value": 116, "unit": "mL/min"}, {"measurement": "half-life", "setting": "both, 40 mg, t1/2, single dose 40 mg", "value": 7.84, "unit": "h"}, {"measurement": "Tmax", "setting": "both, 40 mg, single dose 40 mg", "value": 2, "unit": "h"}, {"measurement": "AUC(0-inf)", "setting": "both, 100 mg", "value": 23200, "unit": "ng·h/mL"}, {"measurement": "AUC(0-t)", "setting": "[4]", "value": 23000, "unit": "ng·h/mL"}, {"measurement": "clearance", "setting": "[4]", "value": 75.2, "unit": "mL/min"}, {"measurement": "Cmax", "setting": "[4]", "value": 1770, "unit": "ng/mL"}, {"measurement": "half-life", "setting": "both, 100 mg, t1/2, single dose 100 mg", "value": 9.13, "unit": "h"}, {"measurement": "Tmax", "setting": "[4]", "value": 2, "unit": "h"}, {"measurement": "half-life", "setting": "both, drug half-life in plasma", "value": "6 to 10", "unit": "h"}, {"measurement": "half-life", "setting": "both, mean terminal elimination half-life, Day 10", "value": "8 to 10", "unit": "h"}, {"measurement": "concentration at 10 day", "setting": "2.5 mg", "value": 6.24, "unit": "ng/mL"}, {"measurement": "AUC(0-t)", "setting": "[5]", "value": 384, "unit": "ng·h/mL"}, {"measurement": "AUC", "setting": "[5]", "value": 397, "unit": "ng·h/mL"}, {"measurement": "AUC", "setting": "[6]", "value": 526, "unit": "ng·h/mL"}, {"measurement": "clearance", "setting": "[5]", "value": 98.3, "unit": "mL/min"}, {"measurement": "clearance", "setting": "[6]", "value": 81.5, "unit": "mL/min"}, {"measurement": "Cmax", "setting": "[5]", "value": 46, "unit": "ng/mL"}, {"measurement": "Cmax", "setting": "[6]", "value": 52.6, "unit": "ng/mL"}, {"measurement": "half-life", "setting": "2.5 mg, t1/2, 2.5 mg once daily, Day 1", "value": 6.73, "unit": "h"}, {"measurement": "half-life", "setting": "2.5 mg, t1/2, 2.5 mg once daily, Day 10", "value": 8.04, "unit": "h"}, {"measurement": "Tmax", "setting": "[5]", "value": 2, "unit": "h"}, {"measurement": "Tmax", "setting": "[6]", "value": 2, "unit": "h"}, {"measurement": "AUC(0-inf)", "setting": "5 mg", "value": 752, "unit": "ng·h/mL"}, {"measurement": "concentration at 10 day", "setting": "5 mg", "value": 10.8, "unit": "ng/mL"}]}]}
